Like-named read-outs stand apart in the source and are kept apart here.
Assays:
Male ICR mice [1] = experiment: Tail suspension test; assay type: in vivo; settings: for influence of flumazenil on antidepressant effect (immobility time): 2.0 mg/kg p.o. 45 minutes prior plus flumazenil 1.25 mg/kg i.p. 15 minutes prior; for oral dose that significantly shortens immobility time (antidepressant effect): 45 minutes prior to testing (imipramine 30 minutes), immobility scored from 2 to 6 min
Description: Tail suspension test. Male ICR mice 4 to 6 weeks of age were randomized into groups (n=12-20/group). Vehicle (0.9% NaCl), or one of oral l-THP, dl-THP and d-THP (0.1-5.0 mg/kg) was administered 45 minutes prior to testing; or 30 mg/kg oral imipramine was administered 30 minutes prior to testing. In the test, a mouse was taped to a bar by the tail and suspended 15 cm above ground for 6 minutes. The total time of immobility was scored manually from 2 to 6 min during the period of suspension. Decreased time of immobility is indicative of antidepressant effect (Stem et al, 1985). To test whether the antidepressant effect elicited by l-THP or dl-THP can be blocked by the benzodiazepine (BZ) binding site antagonist flumazenil, naïve male 4-6 week old mice were randomly separated into three groups (n=12-20/group). The first group received vehicle (p.o.) 45 minutes prior to test and flumazenil (1.25 mg/kg i.p) 15 minutes prior to test, the second group received l-THP (2.0 mg/kg, p.o) or dl-THP (2.0 mg/kg, p.o.) 45 minutes prior to test and vehicle (i.p) 15 minutes prior to test, and the third group received l-THP (2.0 mg/kg p.o) or dl-THP (2.0 mg/kg p.o) 45 minutes prior to test and flumazenil (1.25 mg/kg i.p) 15 minutes prior to experiment.

mice [2] = settings: oral administration; cited from earlier work
Male ICR mice [3] = experiment: Elevated plus-maze test; assay type: in vivo; settings: for time spent in the open arms (anxiolytic effect): 45 minutes prior, 5-minute test; for anxiolysis (time spent in open arms): p<0.001
Description: Elevated plus-maze test. Naive male ICR mice 4 to 6 weeks of age were randomly separated into groups (n=15-20/group). Vehicle (0.9% NaCl), 0.01, 0.05, 0.1, 0.5, 1, 2 and 2.5 mg/kg dl-THP or l-THP, or 1 or 3 mg/kg diazepam was orally administered 45 minutes prior to experiment. The test apparatus consisted of four arms, 25 cm×5 cm each, extended from a center platform of 5 cm×5 cm in the shape of a plus sign. Two of the opposite arms were enclosed by 20 cm opaque high walls, making up the closed arms. The plus maze was elevated 40 cm off the ground. Each mouse was placed onto the center of the maze with head facing an open arm. The frequency and time spent in the open and closed arms were recorded for a period of 5 minutes. An arm entry was recorded when all four paws were inside the arm. Increased number of open-arm entries and percentage of time spent in them are indicative of an anxiolytic effect on the mice (Kalueff and Tuohimaa, 2004; Treit et al., 1993). In addition, the number of closed-arm entries provided an index of locomotor activity (Boguszewski and Zagrodzka, 2002). […] The first group received vehicle (p.o.) 45 minutes prior to test and flumazenil (1.25 mg/kg i.p) 15 minutes prior to test, the second group received l-THP (1.0 mg/kg, p.o) 45 minutes prior to test and vehicle (i.p) 15 minutes prior to test, and the third group received l-THP (1.0 mg/kg p.o) 45 minutes prior to test and flumazenil (1.25 mg/kg i.p) 15 minutes prior to test.

Male ICR mice [4] = experiment: Horizontal wire test (myorelaxant effect); assay type: in vivo
Description: Male ICR mice of 4 to 6 weeks were randomly separated into groups (n=15-20 per group). Vehicle (0.9% NaCl), 0.01-2.5 mg/kg dl-THP or l-THP, and 1 and 3 mg/kg diazepam were orally administered 45 minutes prior to test. Locomotor activity was measured based on crossings of infrared beams. […] Myorelaxant activity was measured using the horizontal wire test. In this test, mouse was lifted by the tail and allowed to grasp onto a horizontally strung wire (1 mm diameter, 20 cm long and placed 20 cm above the table) with their forepaws and released. For each mouse, the number of falls in 60 seconds was recorded.

Male ICR mice [5] = experiment: Locomotor activity side effect test (crossings of infrared beams); assay type: in vivo; settings: 3 mg/kg, 45 minutes prior; p<0.05
Description: Manic-like behavior was induced accomplished using the method of Pathak et al. (2015). Male ICR mice of 6 to 7 week were given daily injection of 1.8 mg/kg d-amphetamine (amphetamine-sensitized mice) or vehicle (0.9% NaCl vehicle treated, viz. mice unsensitized by amphetamine) for 5 days. Amphetamine was then withdrawn for 7 days. The locomotor activity test ‘ZIL-2’ apparatus (Beijing Institute of Materia Medica) employed consisted of a transparent plastic cylinder of 20 cm diameter×12 cm height equipped with six evenly spaced sets of infrared beam-photocell. The number of transitions made by the mouse across the beams as detected by the photocells was recorded automatically over a period of 5 minutes. The level of locomotor activity was scored by the number beam-crossings made by the mouse. In the test, amphetamine sensitized mice were randomly separated into groups (m=12-20 per group). The Amp group of mice received 0.9 mg/kg amphetamine injection 10 minutes prior to testing. […]
Male ICR mice of 4 to 6 weeks were randomly separated into groups (n=15-20 per group). […] Locomotor activity was measured based on crossings of infrared beams. […] Myorelaxant activity was measured using the horizontal wire test. […] For each mouse, the number of falls in 60 seconds was recorded.

[6] = test system: amphetamine sensitized mice; experiment: Test for antimanic-like behavior: locomotor activity of amphetamine sensitized mice; assay type: in vivo; settings: 0.9 mg/kg amphetamine 10 minutes prior
Description: Manic-like behavior was induced accomplished using the method of Pathak et al. (2015). Male ICR mice of 6 to 7 week were given daily injection of 1.8 mg/kg d-amphetamine (amphetamine-sensitized mice) or vehicle (0.9% NaCl vehicle treated, viz. mice unsensitized by amphetamine) for 5 days. Amphetamine was then withdrawn for 7 days. The locomotor activity test ‘ZIL-2’ apparatus (Beijing Institute of Materia Medica) employed consisted of a transparent plastic cylinder of 20 cm diameter×12 cm height equipped with six evenly spaced sets of infrared beam-photocell. The number of transitions made by the mouse across the beams as detected by the photocells was recorded automatically over a period of 5 minutes. The level of locomotor activity was scored by the number beam-crossings made by the mouse. In the test, amphetamine sensitized mice were randomly separated into groups (m=12-20 per group). The Amp group of mice received 0.9 mg/kg amphetamine injection 10 minutes prior to testing. The l-THP groups received oral l-THP (0.05, 0.1 and 0.2 mg/kg) 30 minutes prior to testing, and 0.9 mg/kg amphetamine injection 10 minutes prior to testing. The Veh mice received vehicle orally 30 minutes prior to testing and vehicle injection 10 minutes prior to testing.

rats [7] = settings: PTSD rats, cited from earlier work
rats [8] = settings: cited from earlier work
rats [9] = settings: PTSD rats, cited from earlier work; remark: listed apart in the source
mice [10] = settings: 6.25, 12.5, and 18.75 mg/kg i.g.; cited from earlier work
female ICR mice = experiment: Crawley's sociability and preference for social novelty test (three-chamber box); assay type: in vivo; settings: 45 minutes prior
Description: In Crawley's test, female ICR mice of 8 to 10 weeks were randomized into groups (n=12-20/group), and orally administered 45 minutes prior to testing with vehicle (0.9% NaCl), 0.1 mg/kg l-THP or 0.5 mg/kg l-THP. The test apparatus comprised a rectangular, three-chamber box. Each chamber was 19×45 cm, and the dividing walls between chambers were made of clear Plexiglas. The central chamber was connected to each side chamber with a removable wall. Two identical wire cylindrical containers with removable lids that were large enough to hold a single mouse each were placed vertically inside the apparatus, one in the middle of each side chamber. Each of these containers consisted of a cup made of metal wires to allow for air exchange between the interior and exterior of the cylinder but small enough to prevent direct physical interactions between an animal on the inside with one on the outside, and a removable lid. In the beginning of the test, the two cylindrical containers in the two side chambers were empty, and the subject mouse was placed at the center of the middle chamber for adaptation. After 5 minutes, one social-object mouse (stranger-1) was placed inside the cylinder in one of the side chambers. The placement of strange-1 was systematically changed between the two side chambers between trials. Then the walls separating the middle chamber from the two side chambers were removed to allow the subject mouse free access to all three chambers. In a first 10-minute session, the duration and number of direct contacts between the subject mouse and the container cup housing or not housing the stranger-1 mouse were recorded individually. At the end of this session, a second social-object mouse (stranger-2) was placed in the wire container cup that was empty during the first 10-minute session. Then the duration and number of direct contacts between the subject mouse and the two container cups holding stranger-1 mouse and stranger-2 mouse were recorded separately during a second 10-minute session. The first 10-minute session provided an estimate of the sociability of the subject mouse in terms of its preference if any to spend more time with the container holding the stranger-1 mouse compared to the empty container. The second 10-minute session provided an estimate of the preference of the subject mouse for social novelty in terms of its preference if any to associate with the container holding the novel stranger-2 mouse compared to the container holding the more familiar stranger-1 mouse (Moy et al 2004; Kaidanovich-Beilin et al., 2011).

rats [11] = settings: 10, 20 and 40 mg/kg i.p., mediated by D2 receptors; cited from earlier work

COc1cc2c(cc1OC)[C@@H]1Cc3ccc(OC)c(OC)c3CN1CC2 (racemic) [dl-THP, dl-tetrahydropalmatine]
influence of flumazenil on antidepressant effect (immobility time) (Male ICR mice [1]): inhibition of the antidepressant effects | lowest oral dose eliciting antidepressant effect based on immobility time (Male ICR mice [1]): ≥ 2.0 mg/kg | oral dose that significantly shortens immobility time (antidepressant effect) (Male ICR mice [1]): 2.0 to 5.0 mg/kg | anxiolytic effects: entries into open arms without significant change in entries into closed arms (mice [2]): selective anxiolytic effects | time spent in the open arms (anxiolytic effect) (Male ICR mice [3]; 1.0 mg/kg oral): significant increase in time spent in the open arms | time spent in the open arms (anxiolytic effect) (Male ICR mice [3]; 2.0 mg/kg oral): significant increase in time spent in the open arms | lowest oral dose active for anxiolysis (Male ICR mice [3]): ≥ 1.0 mg/kg

CN1C(=O)CN=C(c2ccccc2)c2cc(Cl)ccc21 [Diazepam]
myorelaxant effect (number of falls in 60 seconds) (Male ICR mice [4]; 3 mg/kg): significant (p<0.05) myorelaxant effect | locomotor activity (crossings of infrared beams) (Male ICR mice [5]): significant decrease | anxiolysis (time spent in open arms) (Male ICR mice [3]; diazepam 1 mg/kg): significant anxiolysis | anxiolysis (time spent in open arms) (Male ICR mice [3]; diazepam 3 mg/kg): significant anxiolysis

CN(C)CCCN1c2ccccc2CCc2ccccc21 [Imipramine]
oral dose that significantly shortens immobility time (antidepressant effect) (Male ICR mice [1]): 30 mg/kg

COc1cc2c(cc1OC)[C@@H]1Cc3ccc(OC)c(OC)c3CN1CC2 [l-THP, levorotatory tetrahydropalmatine]
myorelaxant effect (number of falls in 60 seconds) (Male ICR mice [4]; male, ICR, mouse, in vivo, 45 min): significant (p<0.01) myorelaxant effect | myorelaxant effect (number of falls in 60 seconds) (Male ICR mice [4]; mouse, in vivo): did not induce any significant myorelaxant effect | influence of flumazenil on antidepressant effect (immobility time) (Male ICR mice [1]): inhibition of the antidepressant effects | lowest oral dose eliciting antidepressant effect based on immobility time (Male ICR mice [1]): ≥ 0.5 mg/kg | oral dose that significantly shortens immobility time (antidepressant effect) (Male ICR mice [1]): 0.5 to 5.0 mg/kg | level of locomotor activity relative to Amp mice (antimanic effect) ([6]; 0.05 mg/kg oral 30 minutes prior): significantly reduced the level locomotor activity | level of locomotor activity relative to Amp mice (antimanic effect) ([6]; 0.1 mg/kg oral 30 minutes prior): significantly reduced the level locomotor activity | level of locomotor activity relative to Amp mice (antimanic effect) ([6]; 0.2 mg/kg oral 30 minutes prior): significantly reduced the level locomotor activity | anxiolytic effect based on the elevated plus-maze test (rats [7]; daily 50 mg/kg i.p.): significant anxiolytic effect | anxiolytic effect based on the elevated plus-maze test (rats [7]; daily 10 or 20 mg/kg i.p.): not | locomotion (rats [8]; 3 mg/kg i.p.): failed to do so | locomotion (rats [8]; 10 mg/kg i.p.): inhibited locomotion | antidepressant effect based on sucrose intake or immobility time in the forced swimming test (rats [9]; daily 50 mg/kg i.p.): significant antidepressant effect | antidepressant effect based on sucrose intake or immobility time in the forced swimming test (rats [9]; daily 10 or 20 mg/kg i.p.): not | locomotor activity (mice [10]): did not affect locomotor activity | time spent in the open arms (anxiolytic effect) (Male ICR mice [3]; 0.1 mg/kg oral): significant increase in time spent in the open arms | time spent in the open arms (anxiolytic effect) (Male ICR mice [3]; 0.5 mg/kg oral): significant increase in time spent in the open arms | influence of flumazenil on anxiolytic effect (time spent in open arms) (Male ICR mice [3]; 1.0 mg/kg p.o. 45 minutes prior plus flumazenil 1.25 mg/kg i.p. 15 minutes prior): inhibition of the anxiolytic effect | time spent in the open arms (anxiolytic effect) (Male ICR mice [3]; 2.5 mg/kg oral): significant increase in time spent in the open arms | lowest oral dose active for anxiolysis (Male ICR mice [3]): ≥ 0.1 mg/kg | preference for social novelty: stranger-2 vs familiar stranger-1 mouse (female ICR mice; 0.1 mg/kg oral, p<0.001): showed preference for the novel stranger-2 mouse | sociability: time with stranger-1 mouse container vs empty container (female ICR mice; 0.1 mg/kg oral, p<0.001): significant enhancement of sociability | preference for social novelty: stranger-2 vs familiar stranger-1 mouse (female ICR mice; 0.5 mg/kg oral, p<0.01): showed preference for the novel stranger-2 mouse | sociability: time with stranger-1 mouse container vs empty container (female ICR mice; 0.5 mg/kg oral, p<0.01): significant enhancement of sociability | antinociceptive effects (rats [11]): dose-dependent antinociceptive effects
